Legend:
[1] = in vitro; conditions: microsomes, pH 7.4; for Percent Remaining 0 min: 0 h; for Percent Remaining 30 min: 0.5 h; for Percent Remaining 60 min: 1 h
Description: Additionally, several of the N77A7 analogs were subjected to the test for the metabolic stability in human and mouse liver microsomes. Briefly, 1 μM of test compound was incubated with microsomal protein (human liver microsomes: 0.5 mg/mL; mouse liver microsomes 0.5 mg/mL) and buffer (100 mM potassium phosphate, pH 7.4, 5 mM magnesium chloride). The positive control was 5 μM testosterone. The reaction was equilibrated at 37 C in a shaking water bath for 3 to 5 minutes. After equilibration, an aliquot was removed and combined with 50/50 acetonitrile/water containing 0.1% formic acid and internal standard to terminate the reaction. 1 mM NADPH was immediately added and the tube was returned to the water bath. Five sample time points were taken (0, 10, 20, 30, and 60 minutes). Aliquots were removed and combined with 50/50 acetonitrile/water containing 0.1% formic acid and internal standard to terminate the reaction. The samples were mixed for 10 minutes and centrifuged. The supernatant from each sample was diluted (if necessary) and then transferred to vials for analysis by LC-MS/MS for the test compound and internal standard without calibration standards. The percent remaining at each time point was determined by the test compound's peak area response ratio versus the 0 minute sample.

[2] = system: SK-Mel-103; test: Suppression of proliferation / senescence induction in melanoma line; format: cell-based; conditions: Homo sapiens
Excerpt: (§1) 260 analogs of N77A7 were selected from several commercially available libraries of small molecules based on the structural similarities with N77A7. The compounds were screened for the ability to permanently suppress proliferation and induce senescence in cells from melanoma lines SK-Mel-19 and SK-Mel-103. Based on the above-described screening procedure, seven small molecules were identified as having IC50 values lower than that of N77A7.

[3] = system: SK-Mel-19; test: as above; format: cell-based; conditions: Homo sapiens, SK-MEL19
Excerpt: as §1

[4] = system: HO-null cells; test: Secondary filter for Myc specificity: cell growth inhibition, methylene blue staining; format: cell-based; conditions: Rattus norvegicus, 72 h, read-out: ID50 HO-null
Description: (§2) FIG. 4 illustrates the myc specificity of tested compounds. Rat1a cells expressing c-myc, L-myc or N-myc or lacking any Myc (null) were treated for 72 h with a range of hit compound concentrations. The cells were then fixed and stained with methylene blue and the percentage of cells in the presence of compound compared to DMSO only control was calculated.
(§3) Validated hits were divided into classes when two or more compounds shared significant structural similarity. The ID50 for N-myc transactivation (the inhibitory dose resulting in 50% decrease in luciferase activity) for each hit was calculated from the dose-response N-myc responsive reporter assay. Compounds within each class were ranked by their ID50 for N-myc transactivation and the best compounds within each class were chosen for further studies. In addition, the best of the structurally unique compounds were also analyzed. A total of 46 hits were passed through a secondary filter designed to determine the specificity of the hits for Myc proteins. For this filter, we used a panel of cell lines derived from Rat1a cells (kindly provided by Michael Cole, Dartmouth University): HO-null-c-Myc deficient cells due to homologous recombination that express neither N-myc nor L-myc HO-c-Myc, HO-L-myc and HO-N-myc derived by retroviral transduction of the corresponding Myc genes into HO-null cells. Since each cell line expresses only a single Myc or no Myc family members, we could identify compounds that act through Myc family members as well as which Myc family members. […] The 18 Myc-specific compounds identified during the screening and filtering process are presented in Table 1 and represent distinct classes of molecules, including pyrazoles (e.g., N147A7, N47E10, N147G5), tetrazoles (e.g., N77A7) and 3-bromophenol (e.g., N4G6).

[5] = system: HO-N-myc cells; test: as above; format: cell-based, rat; conditions: for Myc Index N: ID50 in HO-null cells divided by ID50 in HO—N-myc cells; for IC50: Rattus norvegicus, cell growth inhibition, 72 h, methylene blue, read-out: ID50 HO—N-myc
Description: as §2, §3

[6] = system: HO-c-Myc cells; test: as above; format: cell-based, rat; conditions: for Myc Index C: ID50 in HO-null cells divided by ID50 in HO-c-myc cells; for IC50: Rattus norvegicus, cell growth inhibition, 72 h, methylene blue, read-out: ID50 HO-c-myc
Description: as §2, §3

[7] = system: panel of tumor cell lines, including neuroblastoma and melanoma; test: Effect of Myc inhibitors against panel of tumor cell lines, growth/viability by MTS and resazurin; format: cell-based, human; conditions: neuroblastoma lines IMR32, NBL-WN, 72 h
Description: FIG. 6 illustrates putative Myc inhibitors that are efficacious against tumor but not normal cells. Melanocytes and melanoma (#3 and #10) (A) and neuroblastoma (B) were incubated in the continuous presence of Myc inhibitors for 72 h and cell growth/viability determined by standard MTS and resazurin methods, respectively. Data for three hits is presented as a percent of DMSO vehicle control.

Compound | Percent Remaining 0 min ([1]; human, 1 μM) | Percent Remaining 10 min ([1]; human, 1 μM) | Percent Remaining 20 min ([1]; human, 1 μM) | Percent Remaining 30 min ([1]; human, 1 μM) | Percent Remaining 60 min ([1]; human, 1 μM) | half-life at 1 µM ([1]; human) | microsomal CLint at 1 μM ([1]; human) | Percent Remaining 0 min ([1]; mouse, 1 μM) | Percent Remaining 10 min ([1]; mouse, 1 μM) | Percent Remaining 20 min ([1]; mouse, 1 μM) | Percent Remaining 30 min ([1]; mouse, 1 μM) | Percent Remaining 60 min ([1]; mouse, 1 μM) | half-life at 1 µM ([1]; mouse) | microsomal CLint at 1 μM ([1]; mouse) | IC50 [2] | IC50 [3] | IC50 [4] | Myc Index N [5] | IC50 [5] | IC50 [6] | other results
CCCN(CCC)Cc1c(C(=O)N/N=C/c2ccc(N(CC)CC)cc2O)nnn1-c1nonc1N [Compound 7] | 100% | 46% | 25% | 20% | 11% | 10.7 min | 130 µL/min/mg | 100% | 26% | 7.1% | 3.8% | 1.4% | 5.2 min | 270 µL/min/mg | 0.25 µM | 0.35 µM | – | – | – | – | –
CCN(CC)c1ccc(/C=N\NC(=O)c2nnn(-c3nonc3N)c2CN2CCCCCC2)c(O)c1 [Compound 4] | 100% | 56% | 37% | 28% | 20% | 16 min | 87 µL/min/mg | 100% | 3.1% | 1.8% | 1.3% | <1.0% | 2 min | 690 µL/min/mg | 0.1 µM | 0.15 µM | – | – | – | – | –
Nc1nonc1-n1nnc(C(=O)N/N=C/c2ccccc2O)c1CN1CCc2ccccc2C1 [Compound 5] | – | – | – | – | – | – | – | – | – | – | – | – | – | – | 0.35 µM | 0.6 µM | – | – | – | – | –
Cc1ccc(/C=N/NC(=O)c2cc(-c3ccccc3)n[nH]2)c(O)c1 [Compound 1] | – | – | – | – | – | – | – | – | – | – | – | – | – | – | 2.5 µM | 4 µM | – | – | – | – | –
CCN(CC)c1ccc(/C=N/NC(=O)c2cc(C)n[nH]2)c(O)c1 [Compound 3] | 100% | 93% | 66% | 49% | 24% | 29.5 min | 47 µL/min/mg | 100% | 39% | 12% | 3.7% | <1.0% | 7 min | 200 µL/min/mg | 0.5 µM | 0.5 µM | – | – | – | – | –
CC(C)(C)c1cc(C(=O)N/N=C/c2ccc(O)cc2O)n(-c2ccccc2)n1 [Compound N47E10] | – | – | – | – | – | – | – | – | – | – | – | – | – | – | – | – | 7.21 µM | 5 | 1.44 µM | 2.54 µM | Myc Index C [6]: 2.8
COCc1cc(CN(C)C2CCCCC2)c(O)c2ncccc12 [Compound N269D8] | – | – | – | – | – | – | – | – | – | – | – | – | – | – | – | – | 4.52 µM | 5.3 | 0.85 µM | 0.72 µM | toxicity to N-myc amplified lines versus SH-EP cells [7]: more toxic to the N-myc amplified cell lines, IMR32 and NBL-WN than to SH-EP cells; Myc Index C [6]: 6.3
O=[N+]([O-])c1cccc(Nc2ncnc3ccc(Br)cc23)c1 [Compound N117E2] | – | – | – | – | – | – | – | – | – | – | – | – | – | – | – | – | > 50 µM | >6 | 8.8 µM | 7.49 µM | Myc Index C [6]: >7
CCN(CC)Cc1c(C(=O)N/N=C/c2ccc(N(CC)CC)cc2O)nnn1-c1nonc1N [Compound 6] | 100% | 49% | 31% | 18% | 6.9% | 11.5 min | 120 µL/min/mg | 100% | 20% | 8.9% | 4.3% | 1.2% | 4.6 min | 300 µL/min/mg | 0.25 µM | 0.35 µM | – | – | – | – | –
CC(C)Nc1ncnc2ccc(Br)cc12 [Compound N117G10] | – | – | – | – | – | – | – | – | – | – | – | – | – | – | – | – | 28.2 µM | 6 | 4.58 µM | 6.27 µM | Myc Index C [6]: 4.5
CCN(CC)c1ccc(/C=N/NC(=O)Cn2c3ccccc3c(=O)c3ccccc32)c(O)c1 [Compound 2] | 100% | 119% | 91% | 83% | 74% | > 60 min | < 20 µL/min/mg | 100% | 45% | 32% | 26% | 21% | 13.5 min | 100 µL/min/mg | 0.4 µM | 0.4 µM | – | – | – | – | Half-life ([1]; human, 1 μM): >60 min
O=c1[nH]c2ccc(/N=C/c3cn(Cc4ccc(Cl)cc4Cl)c4ccccc34)cc2[nH]1 [Compound N18C5] | – | – | – | – | – | – | – | – | – | – | – | – | – | – | – | – | > 100 µM | >6 | 16 µM | > 100 µM | –
CN1C(=O)/C(=C\c2cn(Cc3ccccc3)c3ccccc23)C(=O)NC1=S [Compound N423F7] | – | – | – | – | – | – | – | – | – | – | – | – | – | – | – | – | 1980 µM | 17 | 120 µM | 89.1 µM | Myc Index C [6]: 22
